{"source": "patent US9532554B2", "about": "“Method for inducing hepatocellular variation, and production method for chimeric non-human animal having humanized liver” (PUBLIC UNIVERSITY CORPORATION YOKOHAMA CITY UNIVERSITY, priority 2011, dated 2017)", "molecular_target": "T1, human CYP2D6 (Homo sapiens, UniProt P10635)", "T1 construct": "from tissue; host or cells: humanized liver of chimeric mice (transplanted human hepatic cells), in vivo", "T1 sequence (P10635 whole entry)": "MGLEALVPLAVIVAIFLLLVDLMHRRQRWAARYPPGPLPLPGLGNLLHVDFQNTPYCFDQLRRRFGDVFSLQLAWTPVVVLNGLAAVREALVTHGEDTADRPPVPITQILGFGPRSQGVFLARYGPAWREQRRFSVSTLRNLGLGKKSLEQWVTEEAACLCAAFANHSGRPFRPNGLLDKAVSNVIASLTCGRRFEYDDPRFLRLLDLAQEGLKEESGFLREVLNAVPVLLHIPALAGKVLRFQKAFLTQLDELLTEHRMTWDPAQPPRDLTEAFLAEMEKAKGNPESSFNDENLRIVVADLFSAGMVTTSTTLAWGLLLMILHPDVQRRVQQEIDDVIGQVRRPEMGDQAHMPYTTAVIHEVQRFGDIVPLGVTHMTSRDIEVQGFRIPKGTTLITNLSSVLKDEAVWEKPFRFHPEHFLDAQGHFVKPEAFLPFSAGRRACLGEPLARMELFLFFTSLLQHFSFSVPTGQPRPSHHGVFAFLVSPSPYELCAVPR", "assay": "Debrisoquine metabolism to 4-OHDB in chimeric mice", "format": "in vivo", "details": "debrisoquine 2.0 mg/kg orally, chimera group vs sham-operated group", "description": "Debrisoquine, which serves as a common phenotyping agent for human CYP2D6, is metabolized to 4-hydroxydebrisoquine (4-OHDB) in humans but is negligible in mice.\nDebrisoquine was orally administered at a dose of 2.0 mg/kg. The data was obtained 8 hours after the oral administration and is indicated by the mean±SD."}
{"compound": "N=C(N)N1CCc2ccccc2C1", "note": "[debrisoquine, Debrisoquine]", "values": [{"measurement": "plasma concentration of 4-OHDB following oral administration of debrisoquine", "value": "higher in the chimera group than in the sham-operated group"}]}
